Molecules are shown by their SMILES.

This assay relates to L6 differentiated muscle cells. In words: glucose uptake (radiolabelled 2-deoxy-D-[1,2 3H] glucose) in differentiated muscle cells, absence of insulin. The assay is classed as cell-based. The conditions noted are these: ingredient G 1 µM, ingredient K 10 nM, versus control or basal condition. The procedure: Ingredient G refers to vitamin B2, ingredient k refers to 1,25-dihydroxyvitamin D3, and ingredient J refers to zinc chloride.
Ingredient G was tested at 1 µM. Ingredient K was tested at 10 nM, and ingredient J was tested at 20 µM.
Each ingredient was tested in triplicate.

As to `Cc1cc2nc3c(=O)[nH]c(=O)nc-3n(C[C@H](O)[C@H](O)[C@H](O)CO)c2cc1C` [ingredient G, vitamin B2], the glucose uptake entry reads like this: (long term incubation (24 hrs)) “increases in glucose uptake were observed”; (short term incubation (2 hrs), ingredient J 20 µM) “increases in glucose uptake were observed”.

The values above are taken from EP3598902A1, “VITAMIN B2 AND ITS USE” (Société des Produits Nestlé S.A., priority 2014, dated 2016).
